Each block holds one compound with its values, some of them ahead of it.
Key:
[1] = tested on: β-amyloid production by 7W WT APP751 CHO cells; experiment: Measurement of Aβ1-40 and Aβ1-42 by ELISA in culture medium (Example 1, calcium channel blockers); format: cell-based, Chinese hamster
Description: Chinese hamster ovary (CHO) cells, stably transfected with human APP751 (7W WT APP751 CHO cells) were used. See, e.g., Koo and Squazzo, J. Biol. Chem., Vol. 269, Issue 26, 17386-17389, July, 1994. The cells were maintained in DMEM medium supplemented with 10% fetal bovine serum and 1× mixture of penicillin/streptomycin/fungizone/glutamine mixture (Cambrex, MD) geneticin as selecting agent in 75 cm^2 cell culture flasks.
The 7W WT APP751 CHO cells were plated in 24-well cell culture plates in quadruplicate, containing 1 ml of culture medium, and treated with various calcium channel blocker compounds for 4 hours, 24 hours or 48 hours at 37° C. and 5% CO2. All test compounds were diluted in dimethyl sulfoxide (DMSO) before being added to the cultured confluent 7W WT APP751 CHO cells. The culture medium was collected and diluted 5-fold for the 4 hours assay and 50-fold for the 24 hour assay before being assayed by ELISAs for Aβ1-40 and Aβ1-42, respectively. Concentrations of Aβ1-40 and Aβ1-42, expressed in pg/ml, were determined using commercially available ELISAs (Biosource, CA) in a colorimetric assay using labeled antibodies detected spectrophotometrically.
G-sec Inhib XIX, SKF 96365, 2-APB, felodipine, FPL, clotrimazole, tetrandrine, R24571, and econazole are available, as Calbiochem products from EMD Biosciences, Inc., La Jolla, Calif.; nilvadipine, nitrendipine and amlodipine (amlodipine besylate) are available, e.g., from Fujisawa, Osaka, Japan; thapsigargin, BAPTA-AM and TA9 (Tyrphostin A9) are available, e.g., as a Sigma product from Sigma-Aldrich Corp., St. Louis, Mo.; and felodipine, diltiazem, S(−)Bay K8644, R(+)Bay K8644, MRS 1845, SR 33805, loperamide, and isradipine are available from Tocris Cookson Inc., Ellisville, Mo.

[2] = 30 μM, cells plated at low density, 24 hours (FIG. 1C)
[3] = 30 μM, cells plated at low density, 48 hours (FIG. 1D)

Compound: CC(C)(C)c1cc(C=C(C#N)C#N)cc(C(C)(C)C)c1O [tyrphostin A9]
concentration of Aβ1-40 compared to controls ([1]; 20 μM (FIG. 2)): significantly decreased | concentration of Aβ1-42 compared to controls ([1]; 20 μM (FIG. 2)): significantly decreased | concentration of total β-amyloid compared to controls ([1]; 20 μM (FIG. 2)): significantly decreased

Compound: CCOC(=O)C1=C(C)NC(C)=C(C(=O)OC)C1c1cccc([N+](=O)[O-])c1 (centres unmarked) [nitrendipine]
concentration of Aβ1-40 compared to controls ([1]; 30 μM (FIG. 3)): significantly decreased | concentration of total β-amyloid compared to controls ([1]; 30 μM (FIG. 3)): significantly decreased | concentration of Aβ1-40 compared to controls [1, 2]: significantly decreased | concentration of Aβ1-40 compared to controls [1, 3]: significantly decreased

Compound: C#CCN1C(C)=C(C(=O)OC)C(c2cccc([N+](=O)[O-])c2)C(C(=O)OCC)=C1C (centres unmarked) [MRS 1845, N-propargylnitrendipine]
concentration of Aβ1-40 compared to controls ([1]; 30 μM (FIG. 3)): significantly decreased | concentration of total β-amyloid compared to controls ([1]; 30 μM (FIG. 3)): significantly decreased

Compound: COC(=O)C1=C(C#N)NC(C)=C(C(=O)OC(C)C)C1c1cccc([N+](=O)[O-])c1 (centres unmarked) [nilvadipine]
concentration of Aβ1-40 compared to controls ([1]; 30 μM (FIG. 3)): significantly decreased | concentration of total β-amyloid compared to controls ([1]; 30 μM (FIG. 3)): significantly decreased | concentration of Aβ1-40 compared to controls ([1]; 30 μM, 24 hours (FIG. 1B)): significantly decreased | concentration of Aβ1-40 compared to controls [1, 2]: significantly decreased | concentration of Aβ1-40 compared to controls [1, 3]: significantly decreased

Compound: Clc1ccc(C(c2ccc(Cl)cc2)[n+]2ccn(CC(OCc3ccc(Cl)cc3Cl)c3ccc(Cl)cc3Cl)c2)cc1.[Cl-] (stereo not drawn) [Example R24571, 1-[bis(p-chlorophenyl)methyl]-3-[2-(2,4-di-chloro-β-(2,4-dichlorobenzyl-oxy)phenethyl)]-imidazolium chloride]
concentration of Aβ1-40 compared to controls ([1]; 5 μM (FIG. 4)): significantly decreased | concentration of total β-amyloid compared to controls ([1]; 5 μM (FIG. 4)): significantly decreased

Compound: Clc1ccccc1C(c1ccccc1)(c1ccccc1)n1ccnc1 [clotrimazole]
concentration of Aβ1-40 compared to controls ([1]; 20 μM (FIG. 4)): significantly decreased | concentration of total β-amyloid compared to controls ([1]; 20 μM (FIG. 4)): significantly decreased

Compound: CC1=C(C(=O)OC(C)(C)C)C(c2cc(Br)ccc2F)C(C(=O)OC(C)(C)C)=C(C)N1 [Example 48, Di-tert-butyl 4-(5-bromo-2-fluorophenyl)-1,4-dihydro-2,6-dimethylpyridine-3,5-dicarboxylate]
melting point: 173 to 174 °C

Compound: CN(C)C(=O)C(CCN1CCC(O)(c2ccc(Cl)cc2)CC1)(c1ccccc1)c1ccccc1 [loperamide]
concentration of Aβ1-40 compared to controls ([1]; 30 μM (FIG. 4)): significantly decreased | concentration of Aβ1-42 compared to controls ([1]; 30 μM (FIG. 4)): significantly decreased | concentration of total β-amyloid compared to controls ([1]; 30 μM (FIG. 4)): significantly decreased

Compound: CC(=O)C1=C(C)NC(C)=C(C(C)=O)C1c1ccccc1Cl [Example 7, 4-(2-Chlorophenyl)-1,4-dihydro-2,6-dimethylpyridine-3,5-di(2-ethanone)]
melting point: 196 to 197 °C

Compound: COC(=O)C1=C(C)NC(C)=C(C(=O)OC)C1c1ccccc1Cl [Example 8, Dimethyl 4-(2-chlorophenyl)-1,4-dihydro-2,6-dimethylpyridine-3,5-dicarboxylate]
melting point: 188 to 189 °C

Compound: CC1=C(C(=O)OC(C)(C)C)C(c2ccc(F)cc2)C(C(=O)OC(C)(C)C)=C(C)N1 [Example 52, Di-tert-butyl 4-(4-fluorophenyl)-1,4-dihydro-2,6-dimethylpyridine-3,5-dicarboxylate]
melting point: 149 to 150 °C

Compound: CCOC(=O)C1=C(C)NC(C)=C(C(=O)OCC)C1c1cc(Cl)cc(Cl)c1 [Example 37, Diethyl 4-(3,5-dichlorophenyl)-1,4-dihydro-2,6-dimethylpyridine-3,5-dicarboxylate]
melting point: 102 to 104 °C

Compound: CCOC(=O)C1=C(C)NC(C)=C(C(=O)OCC)C1c1cc(Cl)ccc1Cl [Example 34, Diethyl 4-(2,5-dichlorophenyl)-1,4-dihydro-2,6-dimethylpyridine-3,5-dicarboxylate]
melting point: 166.5 to 167.5 °C

Compound: COc1ccc2cc1Oc1ccc(cc1)C[C@H]1c3cc(c(OC)cc3CCN1C)Oc1c(OC)c(OC)cc3c1[C@H](C2)N(C)CC3 [tetrandine, tetrandrine]
concentration of Aβ1-40 compared to controls ([1]; 5 μM (FIG. 4)): significantly decreased | concentration of total β-amyloid compared to controls ([1]; 5 μM (FIG. 4)): significantly decreased | concentration of Aβ1-40 compared to controls ([1]; 10 μM (FIG. 4)): significantly decreased | concentration of total β-amyloid compared to controls ([1]; 10 μM (FIG. 4)): significantly decreased | concentration of Aβ1-40 compared to controls ([1]; 20 μM (FIG. 4)): significantly decreased | concentration of total β-amyloid compared to controls ([1]; 20 μM (FIG. 4)): significantly decreased | concentration of Aβ1-40 compared to controls ([1]; 30 μM (FIG. 4)): significantly decreased | concentration of total β-amyloid compared to controls ([1]; 30 μM (FIG. 4)): significantly decreased

Compound: CC1=C(C(=O)OC(C)(C)C)C(c2ccc(C)cc2C)C(C(=O)OC(C)(C)C)=C(C)N1 [Example 55, Di-tert-butyl 1,4-dihydro-2,6-dimethyl-4-(2,4-dimethylphenyl)pyridine-3,5-dicarboxylate]
melting point: 197 to 198 °C

Compound: C=CCOC(=O)C1=C(C)NC(C)=C(C(=O)OCC=C)C1c1ccccc1Cl [Example 16, Diallyl 4-(2-chlorophenyl)-1,4-dihydro-2,6-dimethylpyridine-3,5-dicarboxylate]
melting point: 98 to 99 °C

Compound: CC1=C(C(=O)OC(C)(C)C)C(c2cc(Cl)ccc2Cl)C(C(=O)OC(C)(C)C)=C(C)N1 [Example 35, Di-tert-butyl 4-(2,5-dichlorophenyl)-1,4-dihydro-2,6-dimethylpyridine-3,5-dicarboxylate]
melting point: 181 to 183 °C

Compound: CCOC(=O)C1=C(C)N(Cc2ccccc2)C(C)=C(C(=O)OCC)C1c1ccc(Br)cc1 [Example 54, Diethyl 1-benzyl-4-(4-bromophenyl)-1,4-dihydro-2,6-dimethylpyridine-3,5-dicarboxylate]
melting point: 168 to 169 °C

Compound: CC1=C(C(=O)OC(C)(C)C)C(c2ccccc2Cl)C(C(=O)OC(C)(C)C)=C(C)N1 [Example 9, Di-tert-butyl 4-(2-chlorophenyl)-1,4-dihydro-2,6-dimethylpyridine-3,5-dicarboxylate]
melting point: 194 to 196 °C

Compound: CC1=C(C(=O)OC(C)(C)C)C(c2ccc(Cl)cc2)C(C(=O)OC(C)(C)C)=C(C)N1 [Example 23, Di-tert-butyl 4-(4-chlorophenyl)-1,4-dihydro-2,6-dimethylpyridine-3,5-dicarboxylate]
melting point: 191.5 to 192.5 °C

More lines, now with the values ahead:

melting point: 120 to 121 °C
Compound: CCOC(=O)C1=C(C)NC(C)=C(C(=O)OCC)C1c1ccccc1Cl [Example 6, Diethyl 4-(2-chlorophenyl)-1,4-dihydro-2,6-dimethylpyridine-3,5-dicarboxylate]

melting point: 151 to 152 °C
Compound: CCOC(=O)C1=C(C)NC(C)=C(C(=O)OCC)C1c1ccc(Cl)cc1 [Example 22, Diethyl 4-(4-chlorophenyl)-1,4-dihydro-2,6-dimethylpyridine-3,5-dicarboxylate]

melting point: 130 to 131 °C
Compound: C=CCOC(=O)C1=C(C)NC(C)=C(C(=O)OCC=C)C1c1ccc(Br)cc1 [Example 40, Diallyl 4-(4-bromophenyl)-1,4-dihydro-2,6-dimethylpyridine-3,5-dicarboxylate]

melting point: 125 to 127 °C
Compound: CCOC(=O)C1=C(C)NC(C)=C(C(=O)OC)C1c1ccccc1Cl (centres unmarked) [Example 56, 3-Ethyl 5-methyl 4-(2-chlorophenyl)-1,4-dihydro-2,6-dimethylpyridine-3,5-dicarboxylate]

melting point: 118 to 119 °C
Compound: CCOC(=O)C1=C(C)NC(C)=C(C(=O)OCC)C1c1cc(Br)ccc1F [Example 47, Diethyl 4-(5-bromo-2-fluorophenyl)-1,4-dihydro-2,6-dimethylpyridine-3,5-dicarboxylate]

melting point: 206 to 207 °C
Compound: CC1=C(C(=O)OC(C)(C)C)C(c2ccc(Br)cc2)C(C(=O)OC(C)(C)C)=C(C)N1 [Example 27, Di-tert-butyl 4-(4-bromophenyl)-1,4-dihydro-2.6-dimethylpyridine-3,5-dicarboxylate]

melting point: 120 to 121 °C
Compound: COCCOC(=O)C1=C(C)NC(C)=C(C(=O)OCCOC)C1c1ccccc1Cl [Example 10, Bis(2-methoxyethyl) 4-(2-chlorophenyl)-1,4-dihydro-2,6-dimethylpyridine-3,5-dicarboxylate]

melting point: 144 to 145 °C
Compound: CCOC(=O)C1=C(C)NC(C)=C(C(=O)OCC)C1c1ccccc1Br [Example 11, Diethyl 4-(2-bromophenyl)-1,4-dihydro-2,6-dimethylpyridine-3,5-dicarboxylate]

melting point: 116 to 117 °C
Compound: COCCOC(=O)C1=C(C)NC(C)=C(C(=O)OCCOC)C1c1ccc(Br)cc1 [Example 46, Bis(2-methoxyethyl) 4-(4-bromophenyl)-1,4-dihydro-2,6-dimethylpyridine-3,5-dicarboxylate]

— US20060188938A1, “Compounds for inhibiting beta-amyloid production and methods of identifying the compounds” (priority 2005, published 2006)
